Results published in patent US20250236616A1, “IMMUNOMODULATING AZALIDES” (Zoetis Services LLC, priority 2021, published 2025).
Where two headings read alike, the source gives them in different places. Marks after values point to notes of the source that are not given here.

Assays:
P. multocida 46572 = test: In vivo mouse lung infection challenge model (murine efficacy), survival; parameters: species or system CD-1 female mice; conditions: P. multocida 46572 intranasal challenge; 20 mg/kg subcutaneous; harmonized relative to vehicle (−) and M9 (+) controls
Method: The challenge organism was P. multocida 46572. Target challenge concentration was 5×10^2 CFU/mouse. Isolated colonies from overnight growth (37° C. with 5% CO2) on trypticase soy agar (TSA II) blood plates were transferred to room temperature Brain Heart Infusion Broth (BHIB). The broth culture was incubated 3.5-4 hours to approximately mid-log phase of growth, as measured by forward light scatter at 600 nm (OD600, 0.200). The culture was centrifuged to collect the bacterial pellet. The pellet was re-suspended in BHIB and adjusted to provide an approximate concentration of 2.7 log 10 colony forming units (CFU) in 0.04 mL at the highest concentration. The challenge inoculum concentration was confirmed by serial dilutions of the inoculum for CFU enumeration. On Day −5, CD −1 female mice were received. Mice were given standard rodent diet and water ad libitum. On Day 0, bacterial inoculum (0.04 mL) was administered to each mouse (n=36) intranasally. Compounds of the invention were dosed at 20 mg/kg (0.1 mL) in a buffered (˜pH 5.4) propylene glycol, monothioglycerol and water solution by subcutaneous injection. Animals were observed from Days 1-10. The study was terminated on Day 10. In addition, some treatment groups were sampled at 6, 24, and 48 hours post bacterial challenge for RNA sequence analysis of lung tissue.
The murine efficacy model (P.multocida challenge) was optimized, and the treatment group size was powered to be able to observe statistically significant improvement of survival to expected ranges for immunomodulatory compounds. The experimental design was a randomized complete block design. Mice were individually identified and treatment groups comingled within a cage, with every treatment group equally represented across cages. Mortality was the primary variable. Mortality data was analyzed using a generalized mixed model with fixed effect of treatment and random effect of block. Survival time was also analyzed using the SAS PHREG (survival analysis) procedure to examine whether there were significant differences between treatment groups and the control group. Numerous compounds of the invention and M9 (positive control) were tested in this model at a dose of 20 mg/kg (Table 3). Typical percent survival for no treatment control is in the range of 0-20% based on study to study variation in challenge inoculum and rate of infection. […] Mouse survival for M9 was about 90-100%, further supporting its residual antibacterial properties against the bacterial strain.

IL-1β = test: Whole bovine blood assay, LPS-induced IL-1β (inhibition / overstimulation); type: cell-based; conditions: drug concentration giving overstimulation (OS) of LPS-induced IL-1β, top concentration 250 μM
Summary of the method: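 Fresh heparinized bovine whole blood was preincubated with compound at varying concentrations for 4 h at 37 °C, then stimulated with 1 μg/mL LPS for 18 h. Plasma IL-1β was measured by MSD chemiluminescent immunoassay and normalized to total protein. Values cover inhibition and concentration-dependent overstimulation.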

TNF-α = test: Whole bovine blood assay, LPS-induced TNF-α; type: cell-based; conditions: fresh whole bovine blood, LPS stimulant, top drug concentration 250 μM
Summary of the method: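 Fresh heparinized bovine whole blood was preincubated with compound 4 h at 37 °C, then stimulated with LPS (final 1 μg/mL) for 18 h at 37 °C. Plasma TNF-α was quantified by MSD U-Plex chemiluminescent immunoassay, normalized to total protein (BCA), and IC50 taken for LPS-induced TNF-α inhibition.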

[1] = system: BRD pathogens, M. haemolytica and P. multocida; test: MIC screening panel, BRD pathogens (CLSI broth micro-dilution); type: cell-based
Excerpt: Primary screening of the compounds of the invention included the evaluation of antibacterial activity of analogs through determination of microbial inhibition concentration (MIC) as per CLSI guidelines. The screening panel included the relevant BRD pathogens: 1) M. haemolytica (e.g., 12726, 46571 and 49023, all AHDRCC; and 33396 (ATCC)); and 2) P. multocida (e.g., 34135 and 46572 (both AHDRCC) and 43137 (ATCC)). In some instances, H. somni (A700025K) pathogens were also included in the screening panel. The AHDRCC strains originated from the Zoetis BRD/SRD surveillance program and refer to the Animal Health Development and Research Culture Collection. In addition, the screen assessed S. aureus (29213 ATCC) as a representative Gram-positive isolate, E.faecalis (19433 ATCC) as a commensal gram-positive gastrointestinal bacterium and E. coli (100, 3110 and 25922 (ATCC)) for the evaluation of efflux potential. The screening panel BRD pathogens were assessed in determining antibacterial activity of the Formula (1) compounds.
All relevant BRD pathogens were initially screened at a top concentration of 64 μg/mL of a Formula (1) compound in an eleven-point dilution series. […] If an Example was purified further, the MICs moved […] essentially two dilutions across all strains tested in the screening panel.
In-Vitro MIC Model Compounds were analyzed for antibacterial activity against a panel of animal health specific gram-positive and gram-negative clinical strains by diluting compounds in DMSO to an appropriate stock concentration to determine the Minimal Inhibitory Concentration (MIC) via a semi-automated broth micro-dilution method (CLSI reference method) with QC strains and anti-microbial agent(s). Specifically, bacteria were grown overnight on TSA w/5% sheep blood agar plates and diluted in saline buffer to a McFarland Standard 0.5, then further diluted in cation-ion adjusted Mueller Hinton Broth to a final concentration of approximately 5×10^5 CFU/mL. 100 μL of inoculated media was added to 96-well plate(s) with 3 μL of serially diluted compound in each row. Depending on strain (see CLSI reference method), bacteria were incubated 18-22 hours at 35-37° C. in ambient air, with 5% CO2 or anaerobically (up to 48 hours).

IL-6 = test: Whole bovine blood assay, LPS-induced IL-6; type: cell-based; conditions: fresh whole bovine blood, LPS stimulant, top drug concentration 250 μM

| Compound | minimal effective concentration (IL-1β) | IC50 (TNF-α) | IC50 (IL-6) | IC50 (TNF-α; Bos taurus) | also measured |
| --- | --- | --- | --- | --- | --- |
| CCCNC[C@]1(O)[C@H](C)O[C@@H](O[C@H]2[C@H](C)[C@@H](O[C@@H]3O[C@H](C)C[C@H](N(C)S(=O)(=O)c4ccc(C(F)(F)F)cc4)[C@H]3O)[C@](C)(O)C[C@@H](C)CN[C@H](C)[C@@H](O)[C@](C)(O)[C@@H](CC)OC(=O)[C@@H]2C)C[C@@]1(C)OC [Example B-14, N-((2S,3R,4S,6R)-2-(((2R,3S,4R,5R,8R,10R,11R,12S,13S,14R)-2-ethyl-3,4,10-trihydroxy-13-(((2R,4R,5S,6S)-5-hydroxy-4-methoxy-4,6-dimethyl-5-((propylamino)methyl)tetrahydro-2H-pyran-2-yl)oxy)-3,5,8,10,12,14-hexamethyl-15-oxo-1-oxa-6-azacyclopentadecan-11-yl)oxy)-3-hydroxy-6-methyltetrahydro-2H-pyran-4-yl)-N-methyl-4-(trifluoromethyl)benzenesulfonamide] | – | – | – | – | % Survival (P. multocida 46572): 16% |
| CC[C@H]1OC(=O)[C@H](C)[C@@H](O)[C@H](C)[C@@H](O[C@@H]2O[C@H](C)C[C@H](N(C)S(=O)(=O)c3scnc3C)[C@H]2Oc2ccc(F)cc2)[C@](C)(O)C[C@@H](C)CN[C@H](C)[C@@H](O)[C@]1(C)O [Example A-26] | 16 µM | 130 µM | 49 µM | – | MIC flag (*) for BRD pathogenic strains ([1]; Table A, at least one BRD pathogenic strain, top concentration 64 μg/mL): A-26* (MIC ≤64 μg/mL for at least one BRD pathogenic strain) |
| (2R,3S,4R,5R,8R,10R,11R,12S,13S,14R)-2-ethyl-3,4,10-trihydroxy-13-[(2R,4R,5S,6S)-5-hydroxy-4-methoxy-4,6-dimethyl-5-[(3,3,3-trifluoropropylamino)methyl]oxan-2-yl]oxy-11-[(2S,3R,4S,6R)-3-hydroxy-6-methyl-4-[methyl-[[4-(trifluoromethyl)phenyl]sulfamoyl]amino]oxan-2-yl]oxy-3,5,8, 10, 12,14-hexamethyl-15-oxo-1-oxa-6-azacyclopentadecane [Example B-65] | 6 µM | 9 µM | 15 µM | – | MIC flag (*) for BRD pathogenic strains ([1]; Table B, at least one BRD pathogenic strain, top concentration 64 μg/mL): B-65* (MIC ≤64 μg/mL for at least one BRD pathogenic strain) |
| CCCNC[C@]1(O)[C@H](C)O[C@@H](O[C@H]2[C@H](C)[C@@H](O[C@@H]3O[C@H](C)C[C@H](N(C)S(=O)(=O)N(C)c4ccc(C(F)(F)F)cc4)[C@H]3O)[C@](C)(O)C[C@@H](C)CN[C@H](C)[C@@H](O)[C@](C)(O)[C@@H](CC)OC(=O)[C@@H]2C)C[C@@]1(C)OC [Example B-113, (2R,3S,4R,5R,8R,10R,11R,12S,13S,14R)-2-ethyl-3,4, 10-trihydroxy-13-[(2R,4R,5S,6S)-5-hydroxy-4-methoxy-4,6-dimethyl-5-(propylaminomethyl)oxan-2-yl]oxy-11-[(2S,3R,4S,6R)-3-hydroxy-6-methyl-4-[methyl-[methyl-[4-(trifluoromethyl)phenyl]sulfamoyl]amino]oxan-2-yl]oxy-3,5,8, 10, 12, 14-hexamethyl-1-oxa-6-azacyclopentadecan-15-one] | – | – | – | 7 µM | % Survival (P. multocida 46572): 59% |
| CC[C@H]1OC(=O)[C@H](C)[C@@H](OC2CC(C)(OC)C(O)(CN3CCCCC3)[C@@H](C)O2)[C@H](C)[C@@H](O[C@@H]2O[C@H](C)C[C@H](N(C)S(=O)(=O)c3ccc(Cl)cc3)[C@H]2O)[C@](C)(O)C[C@@H](C)CN(C)[C@H](C)[C@@H](O)[C@]1(C)O (stereo partly drawn) [Example C-38, 4-chloro-N-((2S,3R,4S,6R)-2-(((2R,3S,4R,5R,8R,10R,11R,12S,13S,14R)-2-ethyl-3,4,10-trihydroxy-13-(((6R)-5-hydroxy-4-methoxy-4,6-dimethyl-5-(piperidin-1-ylmethyl)tetrahydro-2H-pyran-2-yl)oxy)-3,5,6,8, 10, 12, 14-heptamethyl-15-oxo-1-oxa-6-azacyclopentadecan-11-yl)oxy)-3-hydroxy-6-methyltetrahydro-2H-pyran-4-yl)-N-methylbenzenesulfonamide] | – | – | – | 9 µM | minimal effective concentration (IL-1β; Bos taurus, 18 h): 28 µM; MIC ([1]; Table C, at least one BRD pathogenic strain, top concentration 64 μg/mL, read-out: MIC flag (*) for BRD pathogenic strains): ≤ 64 µg/mL; IC50 (IL-6; Bos taurus): 4 µM |
| CC[C@H]1OC(=O)[C@H](C)[C@@H](O[C@H]2C[C@@](C)(OC)[C@](O)(CCl)[C@H](C)O2)[C@H](C)[C@@H](O[C@@H]2O[C@H](C)C[C@H](N(C)S(=O)(=O)c3ccc(Cl)cc3)[C@H]2O)[C@](C)(O)C[C@@H](C)CN[C@H](C)[C@@H](O)[C@]1(C)O [Example A4-1, 4-chloro-N-((2S,3R,4S,6R)-2-(((2R,3S,4R,5R,8R,10R,11R,12S,13S,14R)-13-(((2R,4R,5S,6S)-5-(chloromethyl)-5-hydroxy-4-methoxy-4,6-dimethyltetrahydro-2H-pyran-2-yl)oxy)-2-ethyl-3,4,10-trihydroxy-3,5,8,10,12,14-hexamethyl-15-oxo-1-oxa-6-azacyclopentadecan-11-yl)oxy)-3-hydroxy-6-methyltetrahydro-2H-pyran-4-yl)-N-methylbenzenesulfonamide] | – | – | – | 44 µM | minimal effective concentration (IL-1β; Bos taurus, 18 h): 12 µM; MIC ([1]; BRD pathogens M. haemolytica and P. multocida, read-out: antibacterial / non-antibacterial (MIC class)): > 64 µg/mL; IC50 (IL-6; Bos taurus): 26 µM |
| CC(=O)O.CC[C@H]1OC(=O)[C@H](C)[C@@H](O[C@H]2C[C@@](C)(OC)[C@](O)(CN3CCCCC3)[C@H](C)O2)[C@H](C)[C@@H](O[C@@H]2O[C@H](C)C[C@H](N(C)S(=O)(=O)Nc3ccc(C(F)(F)F)cc3)[C@H]2O)[C@](C)(O)C[C@@H](C)CN(C)[C@H](C)[C@@H](O)[C@]1(C)O [Example C-57, (2R,3S,4R,5R,8R,10R,11R,12S,13S,14R)-2-ethyl-3,4, 10-trihydroxy-13-[(2R,4R,5S,6S)-5-hydroxy-4-methoxy-4,6-dimethyl-5-(piperidin-1-ylmethyl)oxan-2-yl]oxy-11-[(2S,3R,4S,6R)-3-hydroxy-6-methyl-4-[methyl-[[4-(trifluoromethyl)phenyl]sulfamoyl]amino]oxan-2-yl]oxy-3,5,6,8, 10, 12, 14-heptamethyl-15-oxo-1-oxa-6-azacyclopentadecane, acetic acid] | 16 µM | 6 µM | 9 µM | – | MIC flag (*) for BRD pathogenic strains ([1]; Table C, at least one BRD pathogenic strain, top concentration 64 μg/mL): C-57* (MIC ≤64 μg/mL for at least one BRD pathogenic strain) |
